What all share (format): functional, cell-based
Assay [1] can be described thus: Cytotoxicity against 5-fluorouracil-resistant human Bel7402 cells assessed as growth inhibition after 72 hrs by MTT assay. To be noted: Bel-7402, 72 h. A general note: Tetrazolium dyes change colour on reduction, which living cells bring about.
Assay [2] is described as follows: (§1) Cytotoxicity against human A875 cells assessed as growth inhibition after 72 hrs by MTT assay. To be noted: A875, 72 h.
A short description of assay [3]: (§2) Cytotoxicity against human HuH7 cells assessed as growth inhibition after 72 hrs by MTT assay. To be noted: Huh-7, 72 h.
In assay [4] the test system is HepG2. Kind of assay: Cytotoxicity against human HepG2 cells assessed as growth inhibition after 72 hrs by MTT assay. To be noted: for IC50: HepG2, 72 h.
A further assay concerns A875. The assay is described as §1.
Another assay has as its system Huh-7. Described as §2.
The subject of assay [5] is HepG2. Kind of assay: Cytotoxicity against human HepG2 cells assessed as cell shrinkage at 10 ug/ml after 48 hrs by inverted microscopic analysis.
Assay [6] deals with HepG2. Put plainly: Cytotoxicity against human HepG2 cells assessed as decrease in cell level at 10 ug/ml after 48 hrs by inverted microscopic analysis.

A word on the IC50: it is the point on the concentration scale where inhibition reaches its midpoint.

Activity calls are given as the source filed them. No cut-off for these calls is given here.

As for `C[C@]12CC[C@H](O)CC1=CC[C@@H]1[C@@H]2CC[C@]2(C)/C(=N/Cc3ccccc3)CC[C@@H]12`, the IC50 is above 100 µM in assay [1], 42.5 µM in assay [2], above 100 µM in assay [3] and 32.6 µM with HepG2 [4].

For `C[C@]12CC[C@H](O)CC1=CC[C@@H]1[C@@H]2CC[C@]2(C)/C(=N/N=C3\C(=O)Nc4cc(F)ccc43)CC[C@@H]12`, the IC50 was determined as 12.8 µM in assay [1], 29.6 µM in assay [2], 22.3 µM in assay [3] and 19.7 µM in the assay on HepG2 [4]. The “growth inhibition (GI)” value with A875, in the assay with Huh-7 and with HepG2 [4] was “Dose-dependent effect” in each case.

Regarding `C[C@]12CC[C@H](O)CC1=CC[C@@H]1[C@@H]2CC[C@]2(C)/C(=N/N=C3\C(=O)Nc4ccccc43)CC[C@@H]12`, the result in the assay on HepG2 [5] and in the assay on HepG2 [6] was Active. For the same molecule, the IC50 in assay [1] was found to be 21.8 µM; in assay [2], 25.2 µM; in assay [3], 28.2 µM; in the assay on HepG2 [4], 13.3 µM. The “growth inhibition (GI)” value with A875, in the assay with Huh-7 and with HepG2 [4] was “Dose-dependent effect” each time.

Consider `C[C@]12CC[C@H](O)CC1=CC[C@@H]1[C@@H]2CC[C@]2(C)/C(=N/Nc3ncccc3Cl)CC[C@@H]12`, for which the IC50 (in assay [2]; in assay [3]; with HepG2 [4]) was above 90 µM throughout.

In the case of `O=c1[nH]cc(F)c(=O)[nH]1` [FLUOROURACIL], the IC50 in assay [1] is above 700 µM; in assay [2], above 150 µM; in assay [3], above 100 µM; with HepG2 [4], above 150 µM. The “growth inhibition (GI)” value with A875, in the assay on Huh-7 and in the assay with HepG2 [4] was “Dose-dependent effect” in each case.

Consider `C[C@]12CC[C@H](O)CC1=CC[C@@H]1[C@@H]2CC[C@]2(C)/C(=N/N=C3\C(=O)Nc4ccc([N+](=O)[O-])cc43)CC[C@@H]12`, for which the IC50 in assay [1] was found to be 10.1 µM; in assay [2] it was 69 µM; in assay [3], 30.6 µM; with HepG2 [4] it was 27.4 µM.

`C[C@]12CC[C@H](O)CC1=CC[C@@H]1[C@@H]2CC[C@]2(C)/C(=N/c3ccccc3)CC[C@@H]12`: the half-maximal inhibitory concentration (IC50) is above 100 µM in assay [1], 82.7 µM in assay [2], above 100 µM in assay [3] and 63.5 µM in the assay on HepG2 [4].

`CC(C)c1ccc(/N=C2\CC[C@H]3[C@@H]4CC=C5C[C@@H](O)CC[C@]5(C)[C@H]4CC[C@]23C)cc1`: the IC50 was above 90 µM in assay [1], 61.5 µM in assay [2], above 90 µM in assay [3] and 44.3 µM in the assay on HepG2 [4].

As to `C[C@]12CC[C@H](O)CC1=CC[C@@H]1[C@@H]2CC[C@]2(C)/C(=N/N=C3\C(=O)Nc4ccc(I)cc43)CC[C@@H]12`, the IC50 in assay [1] is 14.1 µM; in assay [2], 43.7 µM; in assay [3] it was above 70 µM; in the assay with HepG2 [4], 22.5 µM.

`C[C@]12CC[C@H](O)CC1=CC[C@@H]1[C@@H]2CC[C@]2(C)/C(=N/N=C3\C(=O)Nc4ccc(Br)cc43)CC[C@@H]12`: the result with HepG2 [5] and in the assay with HepG2 [6] was Active. The IC50 in assay [1] amounted to 5.97 µM; in assay [2] it was 14.8 µM; in assay [3] it was 13.9 µM; with HepG2 [4], 16.2 µM. In addition, the “growth inhibition (GI)” value with A875, with Huh-7 and in the assay with HepG2 [4] was “Dose-dependent effect” in each case.

Regarding `C[C@]12CC[C@H](O)CC1=CC[C@@H]1[C@@H]2CC[C@]2(C)/C(=N/Nc3ccccc3)CC[C@@H]12`, the IC50 is 29.9 µM in assay [1], above 100 µM in assay [2], 55.4 µM in assay [3] and 43.1 µM in the assay with HepG2 [4].

The values are drawn from ChEMBL document CHEMBL3616421, “Discovery of novel isatin-dehydroepiandrosterone conjugates as potential anticancer agents” (Bioorg Med Chem Lett, 2015).
